Source: patent US8299060B2, “Trans-4-[[(5S)-5-[[[3,5-bis(trifluoromethyl)phenyl]methyl] (2-methyl-2H-tetrazol-5-yl)amino]-2,3,4,5-tetrahydro-7,9-dimethyl-1H-1-benzazepin-1-yl]methyl]-cyclohexanecarboxylic acid” (Eli Lilly and Company, priority 2009, dated 2012)
Marks after values point to notes of the source that are not given here.

Legend:
[1] = Hygroscopicity and degradation on storage at ambient temperature; format: physicochemical; conditions: stored at ambient temperature
[2] = Chemical stability: acid stability in 0.1N HCl at 40° C.; format: physicochemical
Experimental: Table 6 below lists the chemical stability of BCCA free acid as well as that of selected Examples 31, 89, 153, and 175 disclosed in WO 06/002342, renumbered below as compounds 13, 14, 15, and 16, respectively. […] This increased acid stability for BCCA free acid is not taught and cannot be predicted considering WO 06/002342.
Sample preparations: 1) Compound Stock: 0.9 mg/mL in ACN; 2) 100 μL stock+700 μL ACN+1 mL media (0.1N HCl, 50 mM PO4, pH 8, and 0.3% H2O2); 3) Place vials in heated (40° C.) autosampler, inject at 4 hour intervals for 16 or 24 hours.
Column: Alltech Alltima Phenyl, 3 μm, 4.6×150 mm or Waters XTerra MS C18, 3.5 μm, 4.6×150 mm Column temperature: 50° C., Injection volume: 10 μL. Detection: UV @ 226, 254 or 266 nm (depending on compound) Flow rate: 1.5 mL/min. Mobile phase: 0.1% TFA in 50% water/50% ACN (may need to adjust % ACN to keep compound peak retention time ˜5 min.) final sample conc. 0.05 mg/mL; ACN content 44%.

[3] = IV and PO pharmacokinetics in male Sprague Dawley rats; format: in vivo; conditions: 3 mg/kg PO; for F % (AUC Extrap.) ± sd: 1 mg/kg IV; for Cmax / Tmax: rat, plasma
Experimental: This following is to determine the pharmacokinetic parameters, including oral bioavailability, following a single 1 mg/kg intravenous bolus or a 3 mg/kg oral dose administration of the compound to male Sprague Dawley rats (n=4) in a crossover study design. The intravenous vehicle is 20% solutol microemulsion/80% deionized water. The oral vehicle is povidone USP 10%/SLS 0.5%/QS deionized water. In the intravenous arm, blood samples are collected at 0.08, 0.25, 0.5, 1, 2, 5, 8, 12, and 24 hours post-dose. In the oral arm, blood samples are collected at 0, 0.25, 0.5, 1, 2, 5, 8, 12, and 24 hours post-dose. Plasma is obtained by centrifugation, placed on ice, and frozen until samples are shipped on dry ice to Bioanalytical Systems, Inc. (BASi; West Lafayette, Ind.) for bioanalytical analysis. Concentrations of BCCA are determined by LC/MS/MS and pharmacokinetic parameters are calculated using a validated software program (Watson, Version 7.1). Other vehicles can be used to evaluate the bioavailability of BCCA including: 1% w/v sodium carboxymethyl cellulose, 0.25% w/v polysorbate 80 (Tween 80) and 0.05% 0.05% Dow Corning Antifoam 1510-US in purified water or; 1% w/v sodium carboxymethyl cellulose, 0.5% w/v sodium laurate sulfate, and 0.05% 0.05% Dow Corning Antifoam 1510-US in purified water in purified water each used either with or without sonification to facilitate dissolution of the compounds.

human CETP = molecular target: T1, human CETP (Homo sapiens, UniProt P11597); assay: In vivo assay of CETP activity; set-up: species or system transgenic mice that express human CETP; conditions: 30 mpk oral dose, 79.5% corn oil, 20% oleic acid, 0.5% Lubrafil; CETP and Apo A1 heterozygote mice; 8 hr; read-out: % CETP Inhib 8 hr
T1 construct: plasma from the treated animals is used as the CETP source in the assay; tissue Taconic; host or cells: plasma of transgenic mice expressing human CETP (CETP and Apo A1 heterozygotes)
T1 sequence (P11597 18-493): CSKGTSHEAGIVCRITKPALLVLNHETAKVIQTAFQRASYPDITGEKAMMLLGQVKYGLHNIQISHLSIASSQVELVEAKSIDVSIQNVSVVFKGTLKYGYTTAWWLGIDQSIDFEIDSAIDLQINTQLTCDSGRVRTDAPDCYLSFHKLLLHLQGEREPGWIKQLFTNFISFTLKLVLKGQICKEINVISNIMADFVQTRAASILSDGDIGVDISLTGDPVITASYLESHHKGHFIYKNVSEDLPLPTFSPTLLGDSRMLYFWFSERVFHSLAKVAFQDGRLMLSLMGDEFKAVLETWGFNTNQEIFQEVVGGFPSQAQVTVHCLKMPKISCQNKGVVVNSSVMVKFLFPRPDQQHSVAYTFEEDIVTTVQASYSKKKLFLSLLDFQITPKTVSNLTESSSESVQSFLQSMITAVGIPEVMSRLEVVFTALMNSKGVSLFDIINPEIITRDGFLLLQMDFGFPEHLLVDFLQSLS
From the text: An in vitro Scintillation Proximity Assay (SPA) has been used to evaluate the ability of compounds of this invention to inhibit the transfer of radiolabeled cholesterol esters between HDL and LDL. This assay monitors the inhibition of the transfer of [^3H]cholesterol esters from HDL (Amersham) to biotinylated LDL (Amersham) by a CETP source. The CETP source for this assay can be produced by AV-12 cells that have been created to express human CETP. The radiolabeled cholesterol ester is transferred in a HEPES-NaCl based buffer, after thirty minutes incubation the reaction is stopped and the biotinylated LDL is bound to streptavidin/scintillant coated SPA beads (Amersham). The radioactive signal is measured in a Packard 96-well scintillation TopCounter with window settings fully open. A decrease in radioactive signal from the LDL relative to a standard indicates the ability of compounds to inhibit the activity of CETP.
Syrian Golden Hamsters, which express endogenous CETP, can be used to assess the activity of the compounds in vivo. […] The CETP activity can be determined by a method similar to that described above for the in vitro CETP activity assay, with the modification that plasma from the treated animals is used as the CETP source in the assay.

HDL cholesterol = assay: In vivo assay of plasma lipids (HDL cholesterol elevation); set-up: species or system transgenic mice that express human CETP; conditions: 30 mpk oral dose, 79.5% corn oil, 20% oleic acid, 0.5% Lubrafil, CETP and Apo A1 heterozygote mice
Experimental: Syrian Golden Hamsters, which express endogenous CETP, can be used to assess the activity of the compounds in vivo. Test compounds are administered orally 30 mpk dose in a 79.5% corn oil, 20% oleic acid, 0.5% Lubrafil vehicle to a strain of transgenic mice that express human CETP (female or male CETP and Apo A1 heterozygote mice Taconic, Germantown, N.Y.). At various times after dosing, ranging from 4 h to 48 h, blood/plasma can be obtained. The CETP activity can be determined by a method similar to that described above for the in vitro CETP activity assay, with the modification that plasma from the treated animals is used as the CETP source in the assay.
Activity of compounds of this invention in vivo can be evaluated by comparing the level of elevation of HDL cholesterol relative to a control by a given amount of a compound in a CETP-containing animal species. The test compounds are administered as described above for the in vivo assay of CETP activity. […] The HDL cholesterol levels in the serum can be determined by known procedures using HDL-C plus reagents (Roche/Hitachi, Indianapolis, Ind.) with a clinical chemistry analyzer (Roche/Hitachi, Indianapolis, Ind.). Additional serum lipids can be analyzed by enzymatic methods. Lipids in the VLDL, LDL and HDL fractions are analyzed by enzymatic methods after precipitation or size exclusion chromatography. […]

| SMILES | hygroscopicity [1] | Acid Stability, percent remaining, 8 hrs [2] [%] | Acid Stability, percent remaining, 24 hrs [2] [%] | further results |
| --- | --- | --- | --- | --- |
| Cc1cc(C)c2c(c1)[C@@H](N(Cc1cc(C(F)(F)F)cc(C(F)(F)F)c1)c1nnn(C)n1)CCCN2C[C@H]1CC[C@H](C(=O)O)CC1.O (relative stereo) [Example 3, Trans-4-[[(5S)-5-[[[3,5-bis(trifluoromethyl)phenyl]methyl](2-methyl-2H-tetrazol-5-yl)amino]-2,3,4,5-tetrahydro-7,9-dimethyl-1H-1-benzazepin-1-yl]methyl]-cyclohexanecarboxylic acid•Hydrate] |  |  |  | degradation on storage [1]: minor or very little degradation |
| Cc1cc2c(cc1C(F)(F)F)N(C[C@H]1CC[C@H](CC(=O)O)CC1)CCC[C@@H]2N(Cc1cc(C(F)(F)F)cc(C(F)(F)F)c1)c1nnn(C)n1 [Compound 13, (4-{5-[(3,5-Bis-trifluoromethyl-benzyl)-(2-methyl-2H-tetrazol-5-yl)-amino]-7-methyl-8-trifluoromethyl-2,3,4,5-tetrahydro-benzo[b]azepin-1-ylmethyl}-cyclohexyl)-acetic acid] |  | 14.5 | 0 |  |
| Cc1cc2c(cc1C(F)(F)F)N(Cc1ccc(C(=O)O)cc1)CCC[C@@H]2N(Cc1cc(C(F)(F)F)cc(C(F)(F)F)c1)c1nnn(C)n1 [Compound 14, (S)-4-{5-[(3,5-Bis-trifluoromethyl-benzyl)-(2-methyl-2H-tetrazol-5-yl)-amino]-7-methyl-8-trifluoromethyl-2,3,4,5-tetrahydro-benzo[b]azepin-1-ylmethyl}-benzoic acid] |  | 52 | 13.4 |  |
| Cc1cc2c(c(C)c1C(F)(F)F)N(CC1CCC(CC(=O)O)CC1)CCC[C@@H]2N(Cc1cc(C(F)(F)F)cc(C(F)(F)F)c1)c1nnn(C)n1 (stereo partly drawn) [Compound 15, reference compound] |  | 100.4 | 99.1 | F % (AUC Extrap.) ± sd [3]: 8 ± 3%; Cmax [3]: 85 ± 43 ng/mL; Tmax [3]: 5 h |
| Cc1cc2c(cc1C(F)(F)F)N(C1CCC(C(=O)O)CC1)CCC[C@@H]2N(Cc1cc(C(F)(F)F)cc(C(F)(F)F)c1)c1nnn(C)n1 (stereo partly drawn) [Compound 16] |  | 37.8 |  | Acid Stability, percent remaining after 16 hrs ([2]; 16 hrs (footnote *)): 13.4* Percent |
| [O-][n+]1ccccc1[S-].[O-][n+]1ccccc1[S-].[Zn+2] [zinc salt] | essentially non-hygroscopic |  |  |  |

The next lines start with results.

| hygroscopicity [1] | Acid Stability, percent remaining, 8 hrs [2] [%] | Acid Stability, percent remaining, 24 hrs [2] [%] | SMILES | further results |
| --- | --- | --- | --- | --- |
| non-hygroscopic |  |  | Cc1cc(C)c2c(c1)[C@@H](N(Cc1cc(C(F)(F)F)cc(C(F)(F)F)c1)c1nnn(C)n1)CCCN2C[C@H]1CC[C@H](C(=O)O)CC1.O (relative stereo) [Example 5, Trans-4-[[(5S)-5-[[[3,5-bis(trifluoromethyl)phenyl]methyl](2-methyl-2H-tetrazol-5-yl)amino]-2,3,4,5-tetrahydro-7,9-dimethyl-1H-1-benzazepin-1-yl]methyl]-cyclohexanecarboxylic acid hydrate in crystalline form] |  |
| non-hygroscopic |  |  | CC(C)(C)N.CC(C)O.Cc1cc(C)c2c(c1)[C@@H](N(Cc1cc(C(F)(F)F)cc(C(F)(F)F)c1)c1nnn(C)n1)CCCN2C[C@H]1CC[C@H](C(=O)O)CC1 (relative stereo) [Example 14, Trans-4-[[(5S)-5-[[[3,5-bis(trifluoromethyl)phenyl]methyl](2-methyl-2H-tetrazol-5-yl)amino]-2,3,4,5-tetrahydro-7,9-dimethyl-1H-1-benzazepin-1-yl]methyl]-cyclohexanecarboxylic acid tert-butylamine isopropyl alcohol (1:1:1) solvate] |  |
| non-hygroscopic |  |  | CC(C)(C)N.CCO.Cc1cc(C)c2c(c1)[C@@H](N(Cc1cc(C(F)(F)F)cc(C(F)(F)F)c1)c1nnn(C)n1)CCCN2C[C@H]1CC[C@H](C(=O)O)CC1.Cc1cc(C)c2c(c1)[C@@H](N(Cc1cc(C(F)(F)F)cc(C(F)(F)F)c1)c1nnn(C)n1)CCCN2C[C@H]1CC[C@H](C(=O)O)CC1 (relative stereo) [Example 15, Trans-4-[[(5S)-5-[[[3,5-bis(trifluoromethyl)phenyl]methyl](2-methyl-2H-tetrazol-5-yl)amino]-2,3,4,5-tetrahydro-7,9-dimethyl-1H-1-benzazepin-1-yl]methyl]-cyclohexanecarboxylic acid hemi tert-butylamine salt hemi ethanol (2:1:1) solvate in crystalline form] |  |
| non-hygroscopic | 97.3 | 91.3 | Cc1cc(C)c2c(c1)[C@@H](N(Cc1cc(C(F)(F)F)cc(C(F)(F)F)c1)c1nnn(C)n1)CCCN2C[C@H]1CC[C@H](C(=O)O)CC1 [Ex 1, Trans-4-[[(5S)-5-[[[3,5-bis(trifluoromethyl)phenyl]methyl](2-methyl-2H-tetrazol-5-yl)amino]-2,3,4,5-tetrahydro-7,9-dimethyl-1H-1-benzazepin-1-yl]methyl]-cyclohexanecarboxylic acid] | F % (AUC Extrap.) ± sd [3]: 38 ± 4%; Cmax [3]: 208 ± 41 ng/mL; Tmax [3]: 3.5 ± 1.7 h; inhibition at 30 mg/kg (human CETP): 98.6%; % HDL cholesterol increase at 8 hr (HDL cholesterol): 129.7. % |
